The target of assay [1] is T1, human bradykinin 1 receptor (B1R) (Homo sapiens, UniProt P46663).
T1 construct: expressed in transfected cells
T1 sequence (P46663 1-353): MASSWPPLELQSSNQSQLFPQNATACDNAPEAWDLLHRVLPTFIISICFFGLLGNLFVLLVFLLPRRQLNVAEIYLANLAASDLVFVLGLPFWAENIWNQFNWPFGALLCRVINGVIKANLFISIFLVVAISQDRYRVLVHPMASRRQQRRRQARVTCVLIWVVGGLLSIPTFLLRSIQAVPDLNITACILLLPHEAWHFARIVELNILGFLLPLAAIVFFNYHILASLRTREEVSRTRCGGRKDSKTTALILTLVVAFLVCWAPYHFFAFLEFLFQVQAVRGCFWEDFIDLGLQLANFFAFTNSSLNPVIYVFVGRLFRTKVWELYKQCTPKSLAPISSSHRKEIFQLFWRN
Kind of assay: FLIPR Ca2+ assay, B1R antagonism, human. The format is cell-based. Particulars: 10 μM test substance, CHO K1 cells with human B1R gene (hB1R cells), Lys-Des-Arg9-bradykinin at EC80, % inhibition compared with the maximum achievable inhibition; for inhibition at 10 µM: read-out: B1R antagonism, human [10 μM] % inhibition. A digest of the protocol:
(§1)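 Antagonism is given as % of maximum achievable suppression of agonist-evoked Ca2+ influx, measured by Fluo-4 peak fluorescence in FLIPR. Stable hB1R or rB1R CHO K1 lines received 10 μM compound for 10-20 min before EC80 Lys-Des-Arg9-bradykinin (human) or Des-Arg9-bradykinin (rat).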

Assay [2] addresses T2, bradykinin 1 receptor (B1R) of the rat (Rattus norvegicus, UniProt P97583).
T2 construct: expressed in transfected cells
T2 sequence (P97583 1-337): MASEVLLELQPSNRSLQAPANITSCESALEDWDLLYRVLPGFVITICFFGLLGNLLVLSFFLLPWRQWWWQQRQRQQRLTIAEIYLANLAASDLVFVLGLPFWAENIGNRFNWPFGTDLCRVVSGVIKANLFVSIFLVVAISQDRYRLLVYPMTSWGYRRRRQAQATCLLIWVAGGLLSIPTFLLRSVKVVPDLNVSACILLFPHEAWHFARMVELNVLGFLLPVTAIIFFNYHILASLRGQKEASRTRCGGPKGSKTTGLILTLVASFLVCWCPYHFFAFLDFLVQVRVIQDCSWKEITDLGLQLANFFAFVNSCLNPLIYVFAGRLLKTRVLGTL
Kind of assay: FLIPR Ca2+ assay, B1R antagonism, rat. The format is cell-based. Particulars: CHO K1 cells with rat B1R gene (rB1R cells), Des-Arg9-bradykinin at EC80, % inhibition compared with the maximum achievable inhibition; for inhibition at 10 µM: CHO-K1, 10 μM test substance, read-out: B1R antagonism, rat [10 μM] % inhibition; for B1R antagonism, rat [10 μM] % inhibition: 10 μM test substance. In a few lines:
as §1

From patent US8318769B2, “Substituted sulfonamide compounds” (Gruenethal GmbH, priority 2008, dated 2012) come the findings set out here.

With `COc1cc(C)c(S(=O)(=O)N(C)CCOCC(=O)N2CCC(OCCN3CCCC3)(c3ccncc3)CC2)c(C)c1C` [Example 115, 4-methoxy-N,2,3,6-tetramethyl-N-[2-[2-oxo-2-[4-pyridin-4-yl-4-(2-pyrrolidin-1-yl-ethoxy)-piperidin-1-yl]-ethoxy]-ethyl]-benzenesulfonic acid amide], the inhibition at 10 µM in assay [1] came out at 100%; in assay [2], 102%.
With `O=C(COCC1CCCCN1S(=O)(=O)c1ccccc1C(F)(F)F)N1CCC(OCCN2CCCC2)(c2cccnc2)CC1` (centres unmarked) [Example 116, 1-[4-pyridin-3-yl-4-(2-pyrrolidin-1-yl-ethoxy)-piperidin-1-yl]-2-[[1-[[2-(trifluoromethyl)-phenyl]sulfonyl]-piperidin-2-yl]-methoxy]-ethanone], the inhibition at 10 µM was determined as 100% in assay [1] and 101% in assay [2].
Regarding `O=C(COCC1CCCCN1S(=O)(=O)c1ccccc1C(F)(F)F)N1CCC(OCCN2CCCC2)(c2cccnc2)CC1` (centres unmarked) [Example 117, 1-[4-pyridin-3-yl-4-(2-pyrrolidin-1-yl-ethoxy)-piperidin-1-yl]-2-[[1-[[2-(trifluoromethyl)-phenyl]sulfonyl]-piperidin-2-yl]-methoxy]-ethanone], the “B1R antagonism, human [10 μM] % inhibition” value in assay [1] came to 100%. In assay [2], the “B1R antagonism, rat [10 μM] % inhibition” value amounted to 103%.
Take `O=C(COCC1CCCCN1S(=O)(=O)c1ccccc1C(F)(F)F)N1CCC(OCCN2CCCC2)(c2cccc(F)c2)CC1` (centres unmarked) [Example 118, 1-[4-(3-fluorophenyl)-4-(2-pyrrolidin-1-yl-ethoxy)-piperidin-1-yl]-2-[[1-[[2-(trifluoromethyl)-phenyl]sulfonyl]-piperidin-2-yl]-methoxy]-ethanone]: the inhibition at 10 µM in assay [1] worked out at 100%; in assay [2] it was 97%.
Take `COc1cc(C)c(S(=O)(=O)N2CCCCC2COCCC(=O)N2CCC(OCCN3CCCC3)(c3cccnc3)CC2)c(C)c1` (centres unmarked) [Example 119, 3-[[1-[(4-methoxy-2,6-dimethyl-phenyl)sulfonyl]-piperidin-2-yl]-methoxy]-1-[4-pyridin-3-yl-4-(2-pyrrolidin-1-yl-ethoxy)-piperidin-1-yl]-propan-1-one]: the inhibition at 10 µM in assay [1] turned out to be 100%; in assay [2] it was 102%.
The like results for `COc1cc(C)c(S(=O)(=O)N2CCCCC2COCCC(=O)N2CCC(OCCN3CCCC3)(c3cccc(F)c3)CC2)c(C)c1` (centres unmarked) [Example 121, 1-[4-(3-fluorophenyl)-4-(2-pyrrolidin-1-yl-ethoxy)-piperidin-1-yl]-3-[[1-[(4-methoxy-2,6-dimethyl-phenyl)sulfonyl]-piperidin-2-yl]-methoxy]-propan-1-one] were, in that order, 100% and 99%.
As for `COc1cc(C)c(S(=O)(=O)N2CCCCC2COCCC(=O)N2CCC(OCCN3CCCC3)(c3cccc(F)c3)CC2)c(C)c1` (centres unmarked) [Example 122, 1-[4-(3-fluorophenyl)-4-(2-pyrrolidin-1-yl-ethoxy)-piperidin-1-yl]-3-[[1-[(4-methoxy-2,6-dimethyl-phenyl)sulfonyl]-piperidin-2-yl]-methoxy]-propan-1-one], the “B1R antagonism, human [10 μM] % inhibition” value in assay [1] is listed as 100%. In addition, the “B1R antagonism, rat [10 μM] % inhibition” value in assay [2] stood at 100%.
